Measured values taken from the NIST ThermoML archive (doi:10.1016/j.fluid.2004.11.022).

Columns and labels:
[1] = mn = molality of the nth substance listed, in mol/kg; conditions: 298.15 K, 101.3 kPa, Liquid
[2] = osmotic coefficient (dimensionless); mn = molality of the nth substance listed, in mol/kg; conditions: 298.15 K, Liquid, isopiestic method

[Cl-].[Cl-].[Zn+2] [zinc chloride] + CCO
Conditions | mass density [kg/m3] | osmotic coefficient
[1], m1 = 0.0018 | 785.28 | –
[1], m1 = 0.0035 | 785.46 | –
[1], m1 = 0.0053 | 785.67 | –
[1], m1 = 0.0087 | 786.03 | –
[1], m1 = 0.0106 | 786.24 | –
[1], m1 = 0.0127 | 786.47 | –
[1], m1 = 0.0167 | 786.9 | –
[1], m1 = 0.0185 | 787.09 | –
[1], m1 = 0.0227 | 787.56 | –
[1], m1 = 0.033 | 788.63 | –
[1], m1 = 0.0394 | 789.3 | –
[1], m1 = 0.0471 | 790.1 | –
[1], m1 = 0.051 | 790.5 | –
[1], m1 = 0.0551 | 790.94 | –
[1], m1 = 0.0624 | 791.69 | –
[1], m1 = 0.0691 | 792.36 | –
[1], m1 = 0.0734 | 792.8 | –
[1], m1 = 0.0781 | 793.28 | –
[1], m1 = 0.0825 | 793.72 | –
[1], m1 = 0.0921 | 794.68 | –
[1], m1 = 0.1035 | 795.81 | –
[1], m1 = 0.1713 | 802.4 | –
[1], m1 = 0.2776 | 812.39 | –
[1], m1 = 0.4056 | 824.04 | –
[1], m1 = 0.5788 | 839.34 | –
[1], m1 = 0.6875 | 848.7 | –
[1], m1 = 0.8432 | 861.8 | –
[1], m1 = 1.086 | 881.52 | –
[1], m1 = 1.132 | 885.11 | –
[1], m1 = 1.312 | 899.05 | –
[1], m1 = 1.346 | 901.59 | –
[1], m1 = 1.542 | 916.09 | –
[1], m1 = 1.689 | 926.54 | –
[1], m1 = 1.883 | 940 | –
[1], m1 = 2.041 | 950.61 | –
[1], m1 = 2.204 | 961.4 | –
[1], m1 = 2.402 | 974.29 | –
[1], m1 = 2.541 | 983.29 | –
[1], m1 = 2.776 | 998.74 | –
[2], m1 = 0.219 | – | 0.359
[2], m1 = 0.4046 | – | 0.332
[2], m1 = 0.4882 | – | 0.352
[2], m1 = 0.5854 | – | 0.358
[2], m1 = 0.7111 | – | 0.36
[2], m1 = 0.7875 | – | 0.379
[2], m1 = 0.8946 | – | 0.383
[2], m1 = 1.057 | – | 0.405
[2], m1 = 1.087 | – | 0.403
[2], m1 = 1.205 | – | 0.416
[2], m1 = 1.227 | – | 0.422
[2], m1 = 1.353 | – | 0.441
[2], m1 = 1.446 | – | 0.443
[2], m1 = 1.567 | – | 0.458
[2], m1 = 1.666 | – | 0.472
[2], m1 = 1.765 | – | 0.482
[2], m1 = 1.889 | – | 0.494
[2], m1 = 1.973 | – | 0.506
[2], m1 = 2.115 | – | 0.519
[2], m1 = 2.233 | – | 0.542
[2], m1 = 2.408 | – | 0.56
[2], m1 = 2.455 | – | 0.571
[2], m1 = 2.61 | – | 0.594
[2], m1 = 2.712 | – | 0.616
